Source: ChEMBL document CHEMBL3108691, “Structural investigation of cycloheptathiophene-3-carboxamide derivatives targeting influenza virus polymerase assembly” (J Med Chem, 2013)

Test system: Influenza A virus
Type: functional, organism-based, Influenza A virus (A/Parma/24/2009(H1N1))
Details: MDCK, 48 h

NC(=O)c1ncn([C@@H]2O[C@H](CO)[C@@H](O)[C@H]2O)n1 [RIBAVIRIN]
EC50: 17 µM
